Measured values as given in patent US7384965B2, “Fused heterocyclic derivatives as PPAR modulators” (Eli Lilly and Company, priority 2003, dated 2008).

Compound | melting point
CCc1cc(OCc2ccc3nc(-c4ccc(C(F)(F)F)cc4)sc3c2)ccc1CCC(=O)O [Example 61, 3-{2-Ethyl-4-[2-(4-trifluoromethylphenyl)benzothiazol-6-ylmethoxy]phenyl}propionic Acid] | 203 to 205 °C
CCc1cc(SCc2ccnc3oc(-c4ccc(C(F)(F)F)cc4)nc23)ccc1OCC(=O)O [Example 97, 2-Ethyl-4-[2-(4-trifluoromethylphenyl)oxazolo[5,4-b]pyridin-7-ylmethylsulfanyl]phenoxyacetic Acid] | 59 to 62 °C
Cc1cc(SCc2cccc3oc(-c4ccc(C(F)(F)F)cc4)nc23)ccc1CCC(=O)O [Example 66, 3-2-Methyl-4-[2-(4-trifluoromethylphenyl)benzooxazol-4-ylmethylsulfanyl]phenylpropionic Acid] | 181 to 183 °C
Cc1cc(SC(C)c2cccc3nc(-c4ccc(C(F)(F)F)cc4)oc23)ccc1CCC(=O)O (racemic) [Example 80, (+/−)-3-(2-Methyl-4-{1-[2-(4-trifluoromethylphenyl)benzooxazol-7-yl]ethylsulfanyl}phenyl)propionic Acid] | 128 to 130 °C
O=C(O)Cc1csc2cc(SCc3ccnc4oc(-c5ccc(C(F)(F)F)cc5)nc34)ccc12 [Example 98, 6-[2-(4-Trifluoromethylphenyl)oxazolo[5,4-b]pyridine-7-ylmethylsulfanyl]benzo[b]thiophen-3-ylacetic Acid] | 203 to 205 °C
CCc1cc(SC(C)(C)c2cccc3nc(-c4ccc(C(F)(F)F)cc4)oc23)ccc1OCC(=O)O [Example 77, 2-Ethyl-4-{1-methyl-1-[2-(4-trifluoromethylphenyl)benzooxazol-7-yl]ethylsulfanyl}phenoxyacetic Acid] | 122 to 125 °C
Cc1cc(SCc2ccnc3sc(-c4ccc(C(F)(F)F)cc4)nc23)ccc1OCC(=O)O [Example 100, 2-Methyl-4-[2-(4-trifluoromethylphenyl)thiazolo[5,4-b]pyridine-7-ylmethylsulfanyl]phenoxyacetic Acid] | 82 to 85 °C
Cc1cc(SC(C)(C)c2cccc3nc(-c4ccc(C(F)(F)F)cc4)oc23)ccc1CCC(=O)O [Example 76, 3-(2-Methyl-4-{1-methyl-1-[2-(4-trifluoromethylphenyl)benzooxazol-7-yl]ethylsulfanyl}phenyl)propionic Acid] | 104 to 107 °C
Cc1cc(SCCc2cccc3sc(-c4ccc(C(F)(F)F)cc4)nc23)ccc1CCC(=O)O [Example 49, 3-(2-Methyl-4-{2-[2-(4-trifluoromethylphenyl)benzothiazol-4-yl]ethylsulfanyl}phenyl)propionic Acid] | 118 to 120 °C
Cc1cc(SCc2ccnc3oc(-c4ccc(C(F)(F)F)cc4)nc23)ccc1CCC(=O)O [Example 96, 3-{2-Methyl-4-[2-(4-trifluoromethylphenyl)oxazolo[5,4-b]pyridin-7-ylmethylsulfanyl]phenyl}propionic Acid] | > 260 °C (dec.)
CCc1cc(SCCc2cccc3sc(-c4ccc(C(F)(F)F)cc4)nc23)ccc1OCC(=O)O [Example 50, 2-Ethyl-4-{2-[2-(4-trifluoromethylphenyl)benzothiazol-4-yl]ethylsulfanyl}phenoxyacetic Acid] | 84 to 86 °C
Cc1cc(SCc2cccc3c2nc(-c2ccc(C(F)(F)F)cc2)n3C)ccc1OCC(=O)O [Example 89, 2-Methyl-4-[1-methyl-2-(4-trifluoromethylphenyl)-1H-benzoimidazol-4-ylmethylsulfanyl]phenoxyacetic Acid] | 192 to 194 °C
Cc1cc(OCc2ccc3nc(-c4ccc(C(F)(F)F)cc4)sc3c2)ccc1CCC(=O)O [Example 60, 3-{2-Methyl-4-[2-(4-trifluoromethylphenyl)benzothiazol-6-ylmethoxy]phenyl}propionic Acid] | 198 to 200 °C
O=C(O)Cc1cccc(SCc2cccc3sc(-c4ccc(C(F)(F)F)cc4)nc23)c1 [Example 41] | 140 to 143 °C
O=C(O)Cc1csc2cc(OCc3cccc4sc(-c5ccc(C(F)(F)F)cc5)nc34)ccc12 [Example 42, 6-[2-(4-Trifluoromethylphenyl)benzothiazol-4-ylmethoxy]benzo[b]thiophen-3-ylacetic Acid] | 185 to 190 °C
Cc1cc(SCc2cccc3[nH]c(-c4ccc(C(F)(F)F)cc4)nc23)ccc1CCC(=O)O [Example 86, 3-{2-Methyl-4-[2-(4-trifluoromethylphenyl)-1H-benzoimidazol-4-ylmethylsulfanyl]phenyl}propionic Acid] | 214 to 216 °C
CCc1cc(SCc2cccc3[nH]c(-c4ccc(C(F)(F)F)cc4)nc23)ccc1OCC(=O)O [Example 87, 2-Ethyl-4-[2-(4-trifluoromethylphenyl)-1H-benzoimidazol-4-ylmethylsulfanyl]phenoxyacetic Acid] | 223 °C (dec.)
CC(Sc1ccc2c(CC(=O)O)csc2c1)c1cccc2nc(-c3ccc(C(F)(F)F)cc3)oc12 (racemic) [Example 82, (+/−)-6-{1-[2-(4-Trifluoromethylphenyl)benzooxazol-7-yl]ethylsulfanyl}benzo[b]thiophen-3-ylacetic Acid] | 195 to 198 °C

Compound | melting point
Cc1cc(SCc2ccnc3c2nc(-c2ccc(C(F)(F)F)cc2)n3C)ccc1CCC(=O)O [Example 108, 3-{2-Methyl-4-[3-methyl-2-(4-trifluoromethylphenyl)-3H-imidazo[4,5-b]pyridin-7-ylmethylsulfanyl]phenyl}propionic Acid] | 89 to 91 °C
CCc1cc(OC(C)c2cccc3nc(-c4ccc(C(F)(F)F)cc4)oc23)ccc1CCC(=O)O (racemic) [Example 84, (+/−)-3-(2-Ethyl-4-{1-[2-(4-trifluoromethylphenyl)benzooxazol-7-yl]ethoxy}phenyl)propionic Acid] | 60 to 63 °C
Cc1cc(SCc2ccc3sc(-c4ccc(C(F)(F)F)cc4)nc3c2)ccc1OCC(=O)O [Example 51, 2-Methyl-4-[2-(4-trifluoromethylphenyl)benzothiazol-5-ylmethylsulfanyl]phenoxyacetic Acid] | 138 to 140 °C
O=C(O)Cc1csc2cc(SCc3cccc4nc(-c5ccc(C(F)(F)F)cc5)sc34)ccc12 [Example 47, 6-[2-(4-Trifluoromethylphenyl)benzothiazol-7-ylmethylsulfanyl]benzo[b]thiophen-3-ylacetic Acid] | 201 to 204 °C
Cc1cc(SCc2ccc3sc(-c4ccc(C(F)(F)F)cc4)nc3c2)ccc1CCC(=O)O [Example 52, 3-{2-Methyl-4-[2-(4-trifluoromethylphenyl)benzothiazol-5-ylmethylsulfanyl]phenyl}propionic Acid] | 141 to 143 °C
CCc1cc(SCc2cccc3nc(-c4ccc(C(F)(F)F)cc4)sc23)ccc1OCC(=O)O [Example 45, 2-Ethyl-4-[2-(4-trifluoromethylphenyl)benzothiazol-7-ylmethylsulfanyl]phenoxyacetic Acid] | 160 to 164 °C
CCc1cc(SCc2ccnc3[nH]c(-c4ccc(C(F)(F)F)cc4)nc23)ccc1OCC(=O)O [Example 105, 2-Ethyl-4-[2-(4-trifluoromethylphenyl)-3H-imidazo[4,5-b]pyridin-7-ylmethylsulfanyl]phenoxyacetic Acid] | 188 to 190 °C
CCc1cc(OCc2ccc3sc(-c4ccc(C(F)(F)F)cc4)nc3c2)ccc1CCC(=O)O [Example 55, 3-{2-Ethyl-4-[2-(4-trifluoromethylphenyl)benzothiazol-5-ylmethoxy]phenyl}propionic Acid] | 188 to 190 °C
Cc1cc(SC(C)c2ccc3nc(-c4ccc(C(F)(F)F)cc4)sc3c2)ccc1OCC(=O)O (racemic) [Example 62, (+/−)-2-Methyl-4-{1-[2-(4-trifluoromethylphenyl)benzothiazol-6-yl]ethylsulfanyl}phenoxyacetic Acid] | 170 to 173 °C
O=C(O)Cc1csc2cc(SCc3cccc4sc(-c5ccc(C(F)(F)F)cc5)nc34)ccc12 [Example 43] | 168 to 170 °C
CCc1cc(SCc2cccc3[nH]c(-c4ccc(C(F)(F)F)cc4)cc23)ccc1OCC(=O)O [Example 94, 2-Ethyl-4-[2-(4-trifluoromethylphenyl)-1H-indol-4-ylmethylsulfanyl]phenoxyacetic Acid] | 174 to 176 °C
Cc1cc(SCc2cccc3c2nc(-c2ccc(C(F)(F)F)cc2)n3C)ccc1CCC(=O)O [Example 90, 3-{2-Methyl-4-[1-methyl-2-(4-trifluoromethylphenyl)-1H-benzoimidazol-4-ylmethylsulfanyl]phenyl}propionic Acid] | 168 to 170 °C
Cc1cc(SCc2ccnc3oc(-c4ccc(C(F)(F)F)cc4)nc23)ccc1OCC(=O)O [Example 95, 2-Methyl-4-[2-(4-trifluoromethylphenyl)oxazolo[5,4-b]pyridine-7-ylmethylsulfanyl]phenoxyacetic Acid] | 154 to 157 °C
CCC(Sc1ccc(CCC(=O)O)c(C)c1)c1ccc2nc(-c3ccc(C(F)(F)F)cc3)sc2c1 (racemic) [Example 64, (+/−)-3-(2-Methyl-4-{1-[2-(4-trifluoromethylphenyl)benzothiazol-6-yl]propylsulfanyl}phenyl)propionic Acid] | 105 to 108 °C
Cc1cc(SCc2cccc3nc(-c4ccc(C(F)(F)F)cc4)oc23)ccc1OCC(=O)O [Example 74, 2-Methyl-4-[2-(4-trifluoromethylphenyl)benzooxazol-7-ylmethylsulfanyl]phenoxyacetic Acid] | 172 to 174 °C
CCc1cc(SC(C)c2cccc3nc(-c4ccc(C(F)(F)F)cc4)oc23)ccc1OCC(=O)O (racemic) [Example 81, (+/−)-2-Ethyl-4-{1-[2-(4-trifluoromethylphenyl)benzooxazol-7-yl]ethylsulfanyl}phenoxyacetic Acid] | 172 to 175 °C
O=C(O)Cc1csc2cc(SCc3cccc4nc(-c5ccc(C(F)(F)F)cc5)oc34)ccc12 [Example 71, 6-[2-(4-Trifluoromethylphenyl)benzooxazol-7-ylmethylsulfanyl]benzo[b]thiophen-3-ylacetic Acid] | 208 to 210 °C
Cn1c(-c2ccc(C(F)(F)F)cc2)nc2c(CSc3cccc(CC(=O)O)c3)cccc21 [Example 92, 3-[1-Methyl-2-(4-trifluoromethylphenyl)-1H-benzoimidazol-4-ylmethylsulfanyl]phenylacetic Acid] | 178 to 180 °C
